Test results taken from ChEMBL document CHEMBL1201862, “PubChem BioAssay data set” (2004).
Structures can show the parent of a compound that is named as a salt.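 Cells were grown in 96-well plates and exposed to each compound for 48 hours at five concentrations; endpoints were interpolated linearly between bracketing concentrations, or set to the highest concentration if not reached. The concentration for 50% growth inhibition is given as GI50.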 Active and inactive are the calls of the source. Rule as the data show it: active = GI50 up to about 1.1 µM and inactive = higher.

Columns and labels:
Assay in all cases: NCI-60 cell line screen, 48 h
[1] = test system: ACHN
[2] = test system: DU-145
[3] = test system: HCT-116
[4] = test system: HCT-15
[5] = test system: HOP-92
[6] = test system: IGROV-1
[7] = test system: LOX IMVI
[8] = test system: MCF7
[9] = test system: MDA-N
[10] = test system: NCI-H23
[11] = test system: NCI-H460
[12] = test system: OVCAR-4
[13] = test system: SF-295
[14] = test system: SN12C
[15] = test system: T47D
[16] = test system: UACC-62
[17] = test system: UO-31
[18] = test system: RXF 393
[19] = test system: UACC-257

Measured: GI50

CSc1nc(SC)c2c(CN=[N+]=[N-])c(Br)n(Cc3ccccc3)c2n1
> 100 µM: [4]
inactive: [1] > 100 µM | [2] > 100 µM | [3] 45.6 µM | [5] 15 µM | [6] > 100 µM | [7] 66.1 µM | [8] > 100 µM | [9] 99.3 µM | [10] > 100 µM | [11] > 100 µM | [12] 76.7 µM | [13] 36.1 µM | [14] > 100 µM | [15] 11.7 µM | [16] 47.3 µM | [17] > 100 µM

Cc1ccc(/C=N/Nc2cc(C)c3cccc(C)c3n2)s1
inactive: [1] 16.5 µM | [2] 10.5 µM | [3] 2.82 µM | [5] 6.4 µM | [6] 2.61 µM | [7] 1.63 µM | [8] 4.11 µM | [9] 8.89 µM | [10] 12.2 µM | [12] 13.9 µM | [18] 9.86 µM | [13] 7.1 µM | [14] 9.08 µM | [15] 4.15 µM | [19] 18.7 µM | [16] 17.9 µM | [17] 5.79 µM
3.73 µM: [4]

O=C1c2cc3c(cc2CC12Cc1cc4c(cc1C2=O)CCC4)CCCC3 (stereo not drawn)
> 100 µM: [4]
inactive: [1] > 100 µM | [2] > 100 µM | [3] > 100 µM | [5] > 100 µM | [6] > 100 µM | [7] > 100 µM | [8] > 100 µM | [9] > 100 µM | [10] > 100 µM | [11] > 100 µM | [12] > 100 µM | [18] > 100 µM | [13] > 100 µM | [15] > 100 µM | [19] > 100 µM | [17] > 100 µM

CC1C[C@]2(C)C(NCCN)=Nc3ccccc3[C@@H]2N(C)c2ccccc21 (stereo partly drawn)
17.3 µM: [4]
inactive: [1] 16.3 µM | [2] 15.1 µM | [3] 8.32 µM | [5] 2.3 µM | [6] 14.1 µM | [7] 12.7 µM | [8] 8.18 µM | [9] 13.9 µM | [10] 16.7 µM | [11] 11.1 µM | [12] 16.3 µM | [18] 8.85 µM | [13] 17.9 µM | [14] 14.4 µM | [15] 15.1 µM | [19] 5.04 µM | [16] 13.6 µM | [17] 11.2 µM

CCn1c2nc(=O)n(CCCCCCCCSC(c3ccccc3)(c3ccccc3)c3ccccc3)c(=O)c-2nc2ccccc21
inactive: [1] 3.21 µM | [2] 90.6 µM | [3] 3.7 µM | [5] 15.5 µM | [6] 31.3 µM | [7] 53.5 µM | [8] 6.19 µM | [9] 7.14 µM | [10] 8.3 µM | [11] 4.62 µM | [12] 9.53 µM | [18] 11.3 µM | [13] 20.4 µM | [15] 8.05 µM | [19] 3.73 µM | [17] 6.65 µM
8.38 µM: [4]

C/C(=N\c1ccc(Cl)cc1)c1ccncc1
inactive: [2] > 100 µM | [3] > 100 µM | [5] > 100 µM | [7] > 100 µM | [8] 32.4 µM | [9] > 100 µM | [10] 67.8 µM | [11] > 100 µM | [12] > 100 µM | [18] > 100 µM | [13] > 100 µM | [14] > 100 µM | [19] 22.6 µM | [17] 4.04 µM
0.36 µM: [4]
active: [1] 0.233 µM | [15] 0.809 µM

Cc1nc(-c2ccc(/N=C/c3ccc(N(CCOS(C)(=O)=O)CCOS(C)(=O)=O)cc3C)cc2)cs1
77.6 µM: [4]
inactive: [1] 3.82 µM | [2] 11.5 µM | [3] 34.8 µM | [6] 28.8 µM | [7] 19.4 µM | [8] 2.44 µM | [9] 46 µM | [10] 35.4 µM | [11] 9.46 µM | [12] 59.6 µM | [18] 25.1 µM | [13] 37.7 µM | [14] 27.8 µM | [15] 7.23 µM | [19] 22.8 µM | [16] 9.59 µM | [17] 18.7 µM

COC(=O)c1c(O)ccc2c1c1cc3ccccc3c(O)c1n2CCc1ccc(OC)c(OC)c1
61.5 µM: [4]
inactive: [1] 83.4 µM | [2] 96.6 µM | [3] 97.1 µM | [5] 31.3 µM | [6] 42.2 µM | [8] 65.8 µM | [9] 57.7 µM | [10] 93.1 µM | [11] 20.9 µM | [12] 42.1 µM | [18] > 100 µM | [13] 96.8 µM | [14] > 100 µM | [15] 42.9 µM | [19] > 100 µM | [16] > 100 µM | [17] 84.1 µM

NCCCNOCCCN
inactive: [1] > 100 µM | [2] > 100 µM | [3] > 100 µM | [5] 37.8 µM | [8] > 100 µM | [9] > 100 µM | [10] > 100 µM | [11] > 100 µM | [12] > 100 µM | [18] > 100 µM | [13] > 100 µM | [14] > 100 µM | [15] > 100 µM | [16] > 100 µM | [17] > 100 µM
> 100 µM: [4]

CC(O)(Cc1ccccc1C#N)Cc1ccccc1C#N
79.3 µM: [4]
inactive: [1] 88.5 µM | [2] > 100 µM | [3] > 100 µM | [5] 95.5 µM | [6] > 100 µM | [7] > 100 µM | [8] > 100 µM | [9] > 100 µM | [11] 73.6 µM | [12] 54.2 µM | [18] > 100 µM | [13] 74 µM | [14] > 100 µM | [15] 37.6 µM | [19] 89.7 µM | [16] 59.8 µM

CCOC(=O)c1c(SC(=O)c2ccc(C(C)(C)C)cc2)n(-c2ccccc2)c(=S)n(-c2ccccc2)c1=O
inactive: [1] > 100 µM | [2] > 100 µM | [3] > 100 µM | [5] > 100 µM | [6] > 100 µM | [7] > 100 µM | [8] > 100 µM | [9] > 100 µM | [10] > 100 µM | [11] > 100 µM | [12] > 100 µM | [18] > 100 µM | [13] > 100 µM | [14] > 100 µM | [15] > 100 µM | [19] > 100 µM | [16] > 100 µM
> 100 µM: [4]

OC1c2ccccc2CCC1CN1CCN(CCOC(c2ccc(F)cc2)c2ccc(F)cc2)CC1 (stereo not drawn)
6.05 µM: [4]
inactive: [1] 21.6 µM | [2] 21 µM | [3] 8.22 µM | [5] 9.16 µM | [6] 17.9 µM | [7] 13.8 µM | [8] 14.5 µM | [9] 15.8 µM | [10] 14.5 µM | [11] 15.4 µM | [12] 50.5 µM | [18] 6.18 µM | [13] 18 µM | [14] 13.1 µM | [15] 12.5 µM | [19] 14.7 µM | [16] 13.8 µM

Cc1ccc(S(=O)(=O)NC2C(=O)c3ccccc3C(=O)C2n2cnc3ccccc32)cc1 (stereo not drawn)
inactive: [1] 24.3 µM | [2] 57.9 µM | [3] 27.4 µM | [5] 14.4 µM | [6] 16.8 µM | [7] 31.8 µM | [8] 31.6 µM | [9] 19.4 µM | [10] 23.9 µM | [11] 19.5 µM | [12] 2.19 µM | [18] 24.9 µM | [13] 37.8 µM | [14] 32.7 µM | [15] 25.2 µM | [19] 28.9 µM | [16] 28.3 µM
25.6 µM: [4]

COC(NC(N)=O)C(=O)O (stereo not drawn)
> 100 µM: [4]
inactive: [1] > 100 µM | [2] > 100 µM | [3] > 100 µM | [5] > 100 µM | [6] > 100 µM | [8] > 100 µM | [9] > 100 µM | [10] > 100 µM | [11] > 100 µM | [12] > 100 µM | [18] > 100 µM | [13] > 100 µM | [14] > 100 µM | [15] > 100 µM | [19] > 100 µM | [16] > 100 µM | [17] > 100 µM

Clc1cc2nnn(C3CCCO3)c2cc1Cl (stereo not drawn)
> 100 µM: [4]
inactive: [2] > 100 µM | [3] > 100 µM | [6] > 100 µM | [8] > 100 µM | [9] > 100 µM | [10] 60.1 µM | [11] > 100 µM | [18] > 100 µM | [13] > 100 µM | [14] > 100 µM | [15] > 100 µM | [19] > 100 µM | [16] > 100 µM

CN1C[C@H](C(=O)N[C@]2(C)O[C@@]3(O)[C@@H]4CCCN4C(=O)[C@H](Cc4ccccc4)N3C2=O)C=C2c3cccc4[nH]cc(c34)C[C@H]21 [ERGOTAMINE TARTRATE]
inactive: [1] 21.8 µM | [2] 22.2 µM | [3] 21 µM | [5] 16.9 µM | [6] 20 µM | [7] 15.5 µM | [8] 20.7 µM | [9] 18.5 µM | [10] 21.5 µM | [12] 20.7 µM | [18] 18 µM | [13] 19.3 µM | [14] 20 µM | [15] 33 µM | [19] 13.9 µM | [16] 16 µM | [17] 29.1 µM
18.9 µM: [4]
